The results in this text go back to US20230002446A1, “ANTI-INFLAMMATORY AGENTS” (The University of Sydney, priority 2019, published 2023).

Type in all cases: in vivo
Data set [1] relates to C57BL/6 mice. Briefly: oxazolone murine model of atopic dermatitis. To be noted: injection at day -1, or both day -7 and day -1; compared to PBS. From the text: FIG. 13. RP23 treatment reduces inflammation in a murine model of atopic dermatitis. Ears and shaved backs of C57BL/6 female mice were sensitised (day 0) and challenged (day 7, 10, 14, 17, 19, 21, 23, 25 and 27) with topical application of the irritant oxazolone or vehicle only. Injection of mice with RP23 at day −1, or both day −7 and day −1, is compared to injection with PBS only (day −7 and day −1) or topical application of steroid (0.01% betamethasone dipropionate, 30 mgs) applied on the back at the time of every oxazolone application. Ear thickness was measured with manual callipers. Data are the means+/−SEM (n=5).
Ears and shaved backs of C57BL/6 female mice were sensitised (day 0) and challenged (day 7, 10, 14, 17, 19, 21, 23, 25 and 27) with topical application of the irritant oxazolone or vehicle only. Injection of mice with RP23 at day −1, or both day −7 and day −1, was compared to injection with PBS only (day −7 and day −1) or topical application of steroid (0.01% betamethasone dipropionate, 30 mgs) applied on the back at the time of every oxazolone application. Ear thickness was measured with manual callipers.

For the next data set, the system named is mice. Briefly: tolerability of injection in mice. To be noted: even 10 nmol daily for 6 days sub-cutaneous (data not shown).
The subject of data set [2] is C57BL/6 mice. Briefly: contact hypersensitivity model (DNFB-induced contact dermatitis). Here is the method:
FIG. 2—Peptide administration reduces inflammation in a mouse model of contact dermatitis and reduces myeloid inflammatory infiltrate. (A) Experimental outline of DNFB-induced contact dermatitis. (B) Ear thickness of peptide RP23 (SEQ ID NO:12) treated mice, repeated 3 times. […] Data are presented as mean±S.E.M. Statistical significance was determined (B) by multiple t tests (C) by ANOVA with Dunnett's multiple comparison test, *p<0.05, **p<0.01, ***p<0.001.
FIG. 3—The peptide effect is dependent on the peptide sequence and dose. (A) PBS, scrambled peptide or peptide MUC1SP ([…]; SEQ ID NO: 3) was injected subcutaneously seven days prior to sensitising C57BL/6 mice (n=5) with DNFB on the abdomen. […] (B) A comparison of the immunosuppressive effect of peptide RP23 (SEQ ID NO:12) and MUC1SP (SEQ ID NO: 3). (C) SEQ ID NO:12 suppressed immunity in a dose dependent manner. (D) Addition of GM-CSF to the SEQ ID NO:12 injection abrogated the immune suppression. Data are the means±S.E.M.
FIG. 8—Effects of peptide variants on the inflammatory response. Mice received one injection of PBS or one of the following peptides (10 nmol) subcutaneously at the abdomen (A) peptide RP23 (SEQ ID NO: 12), peptide AF594-RP23 (SEQ ID NO: 21), peptide K4-G3-MUC1SP (SEQ ID NO:22) or MUC1SP C fragment (SEQ ID NO: 2). Five days later, mice were challenged with DNFB at a distal site, on the ears. The thickness of the ears was measured over 72 hours.
FIG. 9—Effects of further peptide variants, without N-terminal methionine, on the inflammatory response in a model of contact dermatitis. Mice received one injection of PBS, RP23 (SEQ ID NO:12) (10 nmol) or one of the peptide variants indicated in the table including SEQ ID NO: 32 and 35 as described herein (equivalent molar amount of RP23), subcutaneously at the abdomen. Photoleucine replaces leucine where indicated, these molecules used for photo-crosslinking studies. Seven days later, abdominal skin was sensitised with a contact irritant (DNFB) and five days later, mice were challenged with DNFB at a distal site, on the ears. (A) Specific increase in ear thickness over 72 hours, data are the means+/−SEM (n=6). Statistical significance was determined by ANOVA with Dunnett's multiple comparison test to PBS only control, **p<0.01. (B) Specific increase in ear thickness at 24 hours post-challenge. Data are the means+/−SEM (n=6). Statistical significance was determined by t-test to relevant control, as indicated, *p<0.05, **p<0.01, ns=not significant.
The abdomens of 8-week old female C57BL/6 mice (Australian BioResources) were coarse shaved. A minimum of 24 hours later, RP23 (SEQ ID NO:12) was delivered via sub-cutaneous injection at the abdomen in 50 μl phosphate buffered saline. Seven days later, mice were topically sensitised to 1-fluoro-2,4-dinitrobenzene (DNFB, 0.5 vol %) in olive oil/acetone (1:4, v/v, 30 μl) via application to the shaved abdomen. Five days after sensitisation, mice were challenged on the ears with topical DNFB (0.25 vol %) in olive oil/acetone (1:4, v/v, 15 μl per ear). Ear thickness was measured daily using manual callipers from immediately before challenge, up to 96 hours post challenge. Positive controls for ear swelling consisted of mice that were injected with PBS instead of RP23. Negative or irritant controls consisted of a group of mice that received the DNFB challenge, but not the sensitisation. The average of the change in ear thickness from this control group was subtracted from the change in ear thickness of other samples to account for non-specific irritation due to the application of DNFB, olive oil and acetone.
The inventors then conducted additional in vivo studies, using a model of contact hypersensitivity, to determine the portion of RP23 responsible for its immunomodulatory activity. Mice received one injection of peptide (10 nmol) subcutaneously at the abdomen, seven days prior to sensitisation of the skin with a contact irritant (DNFB). […]

Where a SMILES comes first, the peptide text is derived from it. [ ]: non-standard residue; d: D form. AEEA = NCCOCCOCC(=O)O

Regarding `CSCC[C@H](NC(=O)COCCOCCNC(=O)[C@H](CCCCN)NC(=O)[C@H](CCCCN)NC(=O)[C@H](CCCCN)NC(=O)[C@@H](N)CCCCN)C(=O)N[C@H](C(=O)N1CCC[C@H]1C(=O)NCC(=O)N[C@H](C(=O)N[C@@H](CCC(N)=O)C(=O)N[C@@H](CO)C(=O)N1CCC[C@H]1C(=O)N[C@@H](Cc1ccccc1)C(=O)N[C@@H](Cc1ccccc1)C(=O)N[C@@H](CC(C)C)C(=O)N[C@@H](CC(C)C)C(=O)N[C@@H](CC(C)C)C(=O)N[C@@H](CC(C)C)C(=O)N[C@@H](CC(C)C)C(=O)N[C@H](C(=O)N[C@H](C(=O)N[C@@H](CC(C)C)C(=O)N[C@H](C(=O)N[C@H](C(=O)N[C@H](C(=O)O)C(C)C)C(C)C)[C@@H](C)O)C(C)C)[C@@H](C)O)[C@@H](C)O)[C@@H](C)O` [RP23] (H-KKKK[AEEA]MTPGTQSPFFLLLLLTVLTVV-OH), in the data set with C57BL/6 mice [1], the “inflammation in the ears (ear thickness)” value is listed as “reduced inflammation in the ears”. Further, the adverse reactions result with mice is listed as “No adverse reactions of any kind”. For the same compound, the “inflammatory response (ear thickness over 72 hours)” value in the data set on C57BL/6 mice [2] (10 nmol subcutaneously at the abdomen, compared to PBS (FIG. 8)) is on record as “led to a reduced inflammatory response”. For the same compound, the “immune suppression compared to SEQ ID NO: 3 (MUC1SP)” value with C57BL/6 mice [2] (FIG. 3b) is “without significantly altering immune suppression”. Also, the “suppression of ear swelling with GM-CSF included” value with C57BL/6 mice [2] (GM-CSF added to the injection (FIG. 3d)) was “abrogated much of the suppression”. Besides, in the data set on C57BL/6 mice [2] (dose-response, 2, 5 or 10 nmol), the “reduction in ear swelling compared to controls” value was “up to 100%”. The “elicitation of inflammation (ear thickness)” value in the data set with C57BL/6 mice [2] (single nanomolar injection prior to sensitisation) is on record as “significantly suppress elicitation of inflammation”. The “inflammatory myeloid cell skin infiltrate” value in the data set with C57BL/6 mice [2] (single nanomolar injection prior to sensitisation, flow cytometry 72 hours post challenge) is reported as “reduction”.
